Consider one compound from US20250170104A1, “INHIBITORS OF PSEUDOMONAS AERUGINOSA VIRULENCE FACTOR Lasß” (priority 2022, published 2025).

Format in all cases: biochemical
The target of one assay is LasB (Pseudomonas aeruginosa (strain ATCC 15692 / DSM 22644 / CIP 104116 / JCM 14847 / LMG 12228 / 1C / PRS 101 / PAO1), UniProt P14756). Kind of assay: In vitro LasB activity assay (fluorogenic substrate). Particulars: LasB 0.3 nM, substrate 150 μM, mean ± SD. The essentials:
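LasB (0.3 nM) preincubated 15 min at 37 °C with compound, then 150 µM Abz-Ala-Gly-Leu-Ala-p-nitrobenzylamide added in 50 mM Tris pH 7.2, 2.5 mM CaCl2, 0.075% Pluronic F-127, 5% DMSO. Fluorescence (ex 340, em 415 nm) followed 60 min at 37 °C. IC50 from blank-corrected v/v0 slopes, nonlinear regression, Hill slope fixed at 1.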

Another assay deals with purified LasB (Pseudomonas aeruginosa (strain ATCC 15692 / DSM 22644 / CIP 104116 / JCM 14847 / LMG 12228 / 1C / PRS 101 / PAO1), UniProt P14756). In words: Ex vivo lung homogenate assay with purified LasB. The protocol:
The lung homogenate was prepared from pig lung, which was stored at −80° C. After thawing the lung tissue was cut into pieces of approximately 1.5 cm diameter and 0.5 to 1 cm thickness. Subsequently the bits were flash frozen in liquid nitrogen and lyophilized for 48 h.
1.2 g dried tissue was then ball milled using an IKA Tube Drive and the respective 50 mL ball milling tubes. 20 steel balls were used with target rpm of 6000, reversing the spinning direction every 30 seconds for a total of 10 min. After 10 min the tube was detached and inverted to loosen the powder. The ball milling was repeated with the same setup twice again.
To the powdery tissue 50 mL of a 10 mM Tris buffer including 2 mM CaCl2 with a pH of 8.0 was added and the IKA Tube Drive used again with the same settings as described before for 10 min to disperse the tissue powder in the aqueous buffer. The yielded lung homogenate was pipetted into 15 mL falcons and stored at −80° C. until further use.
To perform the LasB activity/inhibition assay a compound dilution was prepared in DMSO yielding a 100 fold concentration of the final concentration in the assay. LasB was diluted from a higher stock solution to a 6 μM stock in the same buffer as used for the lung homogenate. The assay was performed in Eppis. With a stepper pipette 10 μL of the prepared LasB solution was added to the Eppis to yield a final protein concentration of 300 nM. Then 188 μL of thawed lung homogenate was added with a stepper pipette. Finally, 2 μL of the 100 fold compound dilutions were added and mixed by pipetting up and down. The Eppis were incubated at 37° C. with a shaking speed of 1000 rpm for 4 h.
After 4 h, the Eppis were centrifuged at a speed of 14,000 rpm, 4° C. for 10 min to separate the soluble cleaved Elastin fragments from the non-cleaved insoluble part. 100 μL of the obtained supernatant was transferred to new Eppis, and the same volume of concentrated hydrochloric acid added. […]
Peak areas and response ratios were calculated using Xcalibur Quan browser with Amprolium set as internal standard. […]

In the next assay the target is HDAC3 (Homo sapiens (Human), UniProt O15379). In words: HDAC inhibition. Particulars: read-out: Selectivity IC50 HDAC3. The protocol: (§1) HDAC3 and HDAC8 Inhibitor Screening Assay kits were purchased from Sigma-Aldrich. The assay was performed according to the guidelines of the manufacturer using trichostatin as a positive control. Fluorescence signals were measured in a CLARIOstar plate reader (BMG Labtech).

A further assay addresses HDAC8 (Homo sapiens (Human), UniProt Q9BY41). Kind of assay: HDAC inhibition. Particulars: read-out: Selectivity IC50 HDAC8. The protocol: as §1

Chain of HDAC3 (O15379 whole entry, looked up): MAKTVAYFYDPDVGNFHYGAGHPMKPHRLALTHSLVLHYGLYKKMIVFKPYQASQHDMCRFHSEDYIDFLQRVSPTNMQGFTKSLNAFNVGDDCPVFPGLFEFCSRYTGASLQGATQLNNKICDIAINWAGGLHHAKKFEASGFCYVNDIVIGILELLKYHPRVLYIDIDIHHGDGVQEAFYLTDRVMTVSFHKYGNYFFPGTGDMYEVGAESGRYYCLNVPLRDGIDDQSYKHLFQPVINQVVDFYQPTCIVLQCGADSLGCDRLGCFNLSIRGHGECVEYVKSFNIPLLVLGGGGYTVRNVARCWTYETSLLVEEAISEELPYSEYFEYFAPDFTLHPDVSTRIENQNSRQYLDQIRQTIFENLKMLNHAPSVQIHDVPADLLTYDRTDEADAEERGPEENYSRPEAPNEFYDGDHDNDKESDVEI
Chain of HDAC3 (Q9Y618 whole entry partner, looked up): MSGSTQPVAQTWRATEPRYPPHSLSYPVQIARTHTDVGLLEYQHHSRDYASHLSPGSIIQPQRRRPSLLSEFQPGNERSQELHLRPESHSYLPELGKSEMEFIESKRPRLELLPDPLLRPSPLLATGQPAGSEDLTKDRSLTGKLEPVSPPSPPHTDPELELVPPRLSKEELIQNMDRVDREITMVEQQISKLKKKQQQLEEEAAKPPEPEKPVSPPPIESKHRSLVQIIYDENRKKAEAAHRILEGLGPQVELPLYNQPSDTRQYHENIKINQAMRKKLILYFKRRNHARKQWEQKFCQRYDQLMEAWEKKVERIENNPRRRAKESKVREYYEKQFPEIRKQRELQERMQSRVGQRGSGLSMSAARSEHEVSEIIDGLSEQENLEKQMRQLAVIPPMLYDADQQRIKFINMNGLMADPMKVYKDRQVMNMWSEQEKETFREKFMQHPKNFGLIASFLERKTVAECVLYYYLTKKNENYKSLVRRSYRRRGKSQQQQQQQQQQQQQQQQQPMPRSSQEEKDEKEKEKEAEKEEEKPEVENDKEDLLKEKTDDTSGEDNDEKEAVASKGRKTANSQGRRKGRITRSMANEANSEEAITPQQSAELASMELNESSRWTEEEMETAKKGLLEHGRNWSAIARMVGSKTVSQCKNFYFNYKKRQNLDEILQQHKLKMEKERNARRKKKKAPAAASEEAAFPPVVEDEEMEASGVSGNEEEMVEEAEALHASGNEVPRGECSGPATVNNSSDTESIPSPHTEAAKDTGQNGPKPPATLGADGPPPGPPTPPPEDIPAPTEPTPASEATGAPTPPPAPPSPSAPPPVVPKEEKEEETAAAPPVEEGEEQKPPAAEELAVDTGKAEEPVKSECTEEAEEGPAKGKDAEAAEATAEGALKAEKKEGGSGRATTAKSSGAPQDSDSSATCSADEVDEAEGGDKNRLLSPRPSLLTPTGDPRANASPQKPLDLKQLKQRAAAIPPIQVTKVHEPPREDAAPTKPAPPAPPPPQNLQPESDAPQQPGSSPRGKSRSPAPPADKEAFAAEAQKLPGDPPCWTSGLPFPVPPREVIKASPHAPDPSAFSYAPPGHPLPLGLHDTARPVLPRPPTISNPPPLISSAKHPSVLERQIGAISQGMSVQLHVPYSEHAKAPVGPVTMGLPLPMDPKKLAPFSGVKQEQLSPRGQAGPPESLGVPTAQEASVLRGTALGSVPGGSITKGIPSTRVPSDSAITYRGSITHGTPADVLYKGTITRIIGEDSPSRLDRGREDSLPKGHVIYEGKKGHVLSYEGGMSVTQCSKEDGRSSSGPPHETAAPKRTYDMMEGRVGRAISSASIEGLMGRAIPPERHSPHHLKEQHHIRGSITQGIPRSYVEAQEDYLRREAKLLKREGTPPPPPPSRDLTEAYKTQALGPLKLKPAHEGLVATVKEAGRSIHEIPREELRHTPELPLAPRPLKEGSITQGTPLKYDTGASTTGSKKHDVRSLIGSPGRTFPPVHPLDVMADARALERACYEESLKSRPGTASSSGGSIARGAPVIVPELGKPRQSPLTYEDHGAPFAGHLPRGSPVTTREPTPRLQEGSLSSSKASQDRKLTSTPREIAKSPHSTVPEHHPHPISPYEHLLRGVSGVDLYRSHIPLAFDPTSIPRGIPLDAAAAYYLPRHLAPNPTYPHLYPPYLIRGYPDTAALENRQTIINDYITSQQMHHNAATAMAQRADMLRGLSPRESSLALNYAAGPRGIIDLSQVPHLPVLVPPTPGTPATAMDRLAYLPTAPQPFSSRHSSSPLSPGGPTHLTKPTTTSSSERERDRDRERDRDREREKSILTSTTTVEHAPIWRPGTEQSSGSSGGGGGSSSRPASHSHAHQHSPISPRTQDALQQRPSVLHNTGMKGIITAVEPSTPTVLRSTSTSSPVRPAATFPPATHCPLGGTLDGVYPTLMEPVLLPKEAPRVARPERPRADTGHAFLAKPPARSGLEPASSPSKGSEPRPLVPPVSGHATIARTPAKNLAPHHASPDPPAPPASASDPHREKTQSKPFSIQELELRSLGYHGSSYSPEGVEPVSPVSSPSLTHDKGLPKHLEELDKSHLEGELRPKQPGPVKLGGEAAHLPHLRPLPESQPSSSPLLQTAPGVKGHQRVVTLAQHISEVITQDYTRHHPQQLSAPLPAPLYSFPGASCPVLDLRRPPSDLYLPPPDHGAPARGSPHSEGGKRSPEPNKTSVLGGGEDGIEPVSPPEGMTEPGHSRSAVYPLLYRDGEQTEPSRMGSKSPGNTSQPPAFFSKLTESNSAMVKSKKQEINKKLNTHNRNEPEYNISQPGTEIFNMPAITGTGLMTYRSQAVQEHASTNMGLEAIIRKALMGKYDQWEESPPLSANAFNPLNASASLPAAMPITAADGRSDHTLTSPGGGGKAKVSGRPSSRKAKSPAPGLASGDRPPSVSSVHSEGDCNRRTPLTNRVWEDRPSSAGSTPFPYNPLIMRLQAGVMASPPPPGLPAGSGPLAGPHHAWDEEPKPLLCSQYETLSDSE
Chain of HDAC8 (Q9BY41 whole entry): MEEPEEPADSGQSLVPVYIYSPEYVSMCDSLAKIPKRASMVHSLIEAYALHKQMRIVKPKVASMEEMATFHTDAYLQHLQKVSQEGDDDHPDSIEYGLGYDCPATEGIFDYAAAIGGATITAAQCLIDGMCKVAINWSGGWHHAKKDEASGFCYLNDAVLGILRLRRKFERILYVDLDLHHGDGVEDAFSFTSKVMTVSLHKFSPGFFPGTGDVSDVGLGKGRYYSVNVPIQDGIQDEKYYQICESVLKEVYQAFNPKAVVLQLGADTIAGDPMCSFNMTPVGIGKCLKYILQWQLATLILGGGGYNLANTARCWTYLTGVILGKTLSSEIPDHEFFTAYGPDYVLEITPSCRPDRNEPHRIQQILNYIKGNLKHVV
Chain of purified LasB (P14756 198-498): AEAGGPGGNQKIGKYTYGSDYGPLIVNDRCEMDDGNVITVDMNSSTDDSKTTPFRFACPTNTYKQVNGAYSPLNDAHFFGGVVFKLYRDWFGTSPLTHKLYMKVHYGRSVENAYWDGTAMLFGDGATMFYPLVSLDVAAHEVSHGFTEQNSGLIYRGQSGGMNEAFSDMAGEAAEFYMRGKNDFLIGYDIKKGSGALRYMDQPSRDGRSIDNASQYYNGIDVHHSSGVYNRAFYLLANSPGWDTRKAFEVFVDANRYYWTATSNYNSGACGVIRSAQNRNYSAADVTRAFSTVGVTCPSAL
Chain of LasB (P14756 198-498): as above

Turning to `CC(C)CC(C(=O)NO)C(=O)Nc1ccc(Cn2cc(CNS(=O)(=O)CC(C)C)nn2)cc1` (stereo not shown) [Compound 169, 2-(Hydroxycarbamoyl)-N-[4-[[4-[(isobutylsulfonylamino)methyl]triazol-1-yl]methyl]phenyl]-4-methyl-pentanamide], the IC50 against LasB was 0.0052 ± 0.0002 µM; at purified LasB, 0.077 µM; at HDAC3 it was > 100 µM; on HDAC8, > 100 µM.
